Measurements taken from patent US20260294769A1, “ASCORBIC ACID DERIVATIVES AND COSMETIC THEREOF” (SEIWA KASEI COMPANY, LIMITED, priority 2023, published 2026).
Where two headings read alike, the source gives them in different places.

Legend:
[1] = Stability Test-1: residual rate of 1% aqueous solutions stored at 50° C. (HPLC); assay type: physicochemical; conditions: water, 1% aqueous solution; for remaining at 336 h: after 2 weeks, read-out: Residual Rate; for remaining at 672 h: after 4 weeks
Protocol: (§1) For each of the samples of Synthesis Examples 1 to 6, 1% aqueous solutions were adjusted to pH 3, 5, 7, 8, and 9 with a dilute potassium hydroxide aqueous solution, and then placed in 50 mL screw tubes and sealed. […] Furthermore, the odor and coloration of the samples adjusted to pH 7 were evaluated based on the following methods and criteria, and the results are shown in Table 11.
• ⊚: 80% or more • ◯: 50% or more, less than 80% • Δ: 30% or more, less than 50% • x: Less than 30%

[2] = Stability Test-1: coloration of 1% aqueous solutions adjusted to pH 7 stored at 50° C.; assay type: physicochemical; conditions: 1% aqueous solution pH 7, 50° C., 10 panelists
Protocol: as §1
• Evaluation was made by 10 panelists according to the following criteria. • 3: Almost no change compared to immediately after preparation. • 2: Color changes compared to immediately after preparation. • 1: Strongly colored compared to immediately after preparation. • Based on the results of the above evaluation, the following classification was made: […]

[3] = Stability Test-1: odor of 1% aqueous solutions adjusted to pH 7 stored at 50° C.; assay type: physicochemical; conditions: 1% aqueous solution pH 7, 50° C., 10 panelists
Protocol: as §1
(§2) • Evaluation was made by 10 panelists according to the following criteria. • 3: Almost odorless. • 2: There is a slight strange odor. • 1: A strong odor is detected. • Based on the results of the above evaluation, the following classification was made: • ◯: Total score of 10 panelists is 25 or more • Δ: Total score of 10 panelists is 16-24 • x: The total score of 10 panelists is 15 or less

[4] = tested on: Normal human dermal fibroblasts (NHDF); assay: Hyaluronic acid production promoting effect (ELISA of hyaluronic acid in supernatant); assay type: cell-based; conditions: 10 mM or less, 48 hours, control group set to 100%, N=3
Protocol: Normal human dermal fibroblasts (NHDF) were prepared in D-MEM containing 5% (v/v) fetal bovine serum to a cell density of 2.5×10^4 cells/well, and then pre-incubated on a 96-well plate for 24 hours. After removing the medium, samples prepared in serum-free D-MEM were added to each well and cultured for 48 hours. After the culture was completed, the amount of hyaluronic acid in the supernatant was quantified by ELISA. Measurements were performed in triplicate (N=3).
The amount of hyaluronic acid produced when the sample was measured at a concentration of 10 mM or less was compared with that of the control group, and the results (% values when the control group is set to 100%) are shown in Tables 18 to 20 based on the following criteria.

[5] = Stability Test-2: residual rate in cream of pH 7 or 9 stored at 50° C.; assay type: physicochemical
Protocol: (§3) For each of the samples of Synthesis Examples 9 to 32, (a) and (b) shown in Table 12 were each heated and mixed. After cooling, (c) shown in Table 12 was added to prepare a cream with a pH of 7 or 9. […] The odor and coloration were also evaluated according to the same method and criteria as in Test Example 1. The results regarding the residual rate are shown in Tables 13 and 14, and the results regarding the odor and coloration are shown in Tables 15 and 16.

[6] = Stability Test-2: odor of cream stored at 50° C.; assay type: physicochemical; conditions: 10 panelists
Source text: as §2, §3

[7] = Stability Test-2: coloration of cream stored at 50° C.; assay type: physicochemical; conditions: 10 panelists
Source text: • Evaluation was made by 10 panelists according to the following criteria. • 3: Almost no change compared to immediately after preparation. • 2: Color changes compared to immediately after preparation. • 1: Strongly colored compared to immediately after preparation. • Based on the results of the above evaluation, the following classification was made:
as §3

[8] = cream pH 7, 50° C., after 2 weeks, 20160 min
[9] = cream pH 7, 50° C., after 4 weeks, 40320 min
[10] = cream pH 9, 50° C., after 2 weeks, 20160 min
[11] = cream pH 9, 50° C., after 4 weeks, 40320 min

Row | SMILES | remaining at 336 h ([1]; pH 3, 50° C.) [%] | remaining at 672 h ([1]; pH 3, 50° C.) [%] | remaining at 336 h ([1]; pH 5, 50° C.) [%] | remaining at 672 h ([1]; pH 5, 50° C.) [%] | remaining at 336 h ([1]; pH 7, 50° C.) [%] | remaining at 672 h ([1]; pH 7, 50° C.) [%] | remaining at 336 h ([1]; pH 8, 50° C.) [%] | remaining at 672 h ([1]; pH 8, 50° C.) [%] | remaining at 336 h ([1]; pH 9, 50° C.) [%] | remaining at 672 h ([1]; pH 9, 50° C.) [%] | Residual Rate [5, 8] | Residual Rate [5, 9] | Residual Rate [5, 10] | Residual Rate [5, 11] | Odor ([6]; after 4 weeks) | Coloration ([2]; after 2 weeks) | Hyaluronic acid production-promoting effect [4] | Odor ([6]; after 2 weeks) | Coloration ([7]; after 2 weeks) | Coloration ([7]; after 4 weeks) | other results
1 | CC(C)CCCCCCCCCCCCCCC(=O)OCC(O)C1OC(=O)C2=C1OCCO2 (stereo not drawn) [Synthesis Example 31, 6-O-isostearoyl-2,3-O-(1,2-ethanediyl) ascorbic acid] | – | – | – | – | – | – | – | – | – | – | ⊚ (95% or more) | ⊚ (95% or more) | ⊚ (95% or more) | ⊚ (95% or more) | Δ (Total score of 10 panelists is 16-24) | – | ++ (120%<) | ◯ (Total score of 10 panelists is 25 or more) | ◯ (Total score of 10 panelists is 25 or more) | ◯ (Total score of 10 panelists is 25 or more) | –
2 | CC(C)CCCCCCCCCCCCCCC(=O)OCC(O)C1OC(=O)C2=C1OCCCO2 (stereo not drawn) [Synthesis Example 28, 6-O-isostearoyl-2,3-O-(1,3-propanediyl) ascorbic acid] | – | – | – | – | – | – | – | – | – | – | ⊚ (95% or more) | ⊚ (95% or more) | ⊚ (95% or more) | ⊚ (95% or more) | Δ (Total score of 10 panelists is 16-24) | – | ++ (120%<) | ◯ (Total score of 10 panelists is 25 or more) | ◯ (Total score of 10 panelists is 25 or more) | ◯ (Total score of 10 panelists is 25 or more) | –
3 | CCCCCCCCCCCCCCCC(=O)OCC(OC(=O)CCCCCCCCCCCCCCC)C1OC(=O)C2=C1OCCCCO2 (stereo not drawn) [Synthesis Example 16, 5,6-O-dipalmitoyl-2,3-O-(1,4-butanediyl) ascorbic acid] | – | – | – | – | – | – | – | – | – | – | ⊚ (95% or more) | ⊚ (95% or more) | ⊚ (95% or more) | ⊚ (95% or more) | Δ (Total score of 10 panelists is 16-24) | – | ++ (120%<) | ◯ (Total score of 10 panelists is 25 or more) | ◯ (Total score of 10 panelists is 25 or more) | ◯ (Total score of 10 panelists is 25 or more) | –
4 | CC(C)CCCCCCCCCCCCCCC(=O)OC[C@H](OC(=O)CCCCCCCCCCCCCCC(C)C)[C@H]1OC(=O)C2=C1OCCCCO2 [Synthesis Example 18, 5,6-O-diisostearoyl-2,3-O-(1,4-butanediyl) ascorbic acid] | – | – | – | – | – | – | – | – | – | – | ⊚ (95% or more) | ⊚ (95% or more) | ⊚ (95% or more) | ⊚ (95% or more) | Δ (Total score of 10 panelists is 16-24) | – | ++ (120%<) | ◯ (Total score of 10 panelists is 25 or more) | ◯ (Total score of 10 panelists is 25 or more) | ◯ (Total score of 10 panelists is 25 or more) | –
5 | CCCCCCCCCCCCCCCC(=O)OCC(O)C1OC(=O)C2=C1OCCCO2 (stereo not drawn) [Synthesis Example 26, 6-O-palmitoyl-2,3-O-(1,3-propanediyl) ascorbic acid] | – | – | – | – | – | – | – | – | – | – | ⊚ (95% or more) | ⊚ (95% or more) | ⊚ (95% or more) | ◯ (85% or more, less than 95%) | Δ (Total score of 10 panelists is 16-24) | – | ++ (120%<) | ◯ (Total score of 10 panelists is 25 or more) | ◯ (Total score of 10 panelists is 25 or more) | Δ (Total score of 10 panelists is 16-24) | –

The next lines start with results.

Row | remaining at 336 h ([1]; pH 3, 50° C.) [%] | remaining at 672 h ([1]; pH 3, 50° C.) [%] | remaining at 336 h ([1]; pH 5, 50° C.) [%] | remaining at 672 h ([1]; pH 5, 50° C.) [%] | remaining at 336 h ([1]; pH 7, 50° C.) [%] | remaining at 672 h ([1]; pH 7, 50° C.) [%] | remaining at 336 h ([1]; pH 8, 50° C.) [%] | remaining at 672 h ([1]; pH 8, 50° C.) [%] | remaining at 336 h ([1]; pH 9, 50° C.) [%] | remaining at 672 h ([1]; pH 9, 50° C.) [%] | Residual Rate [5, 8] | Residual Rate [5, 9] | Residual Rate [5, 10] | Residual Rate [5, 11] | Odor ([6]; after 4 weeks) | SMILES | Coloration ([2]; after 2 weeks) | Hyaluronic acid production-promoting effect [4] | Odor ([6]; after 2 weeks) | Coloration ([7]; after 2 weeks) | Coloration ([7]; after 4 weeks) | other results
6 | ≥ 80 | ≥ 80 | ≥ 80 | ≥ 80 | 50 to 80 | 30 to 50 | 50 to 80 | 30 to 50 | 50 to 80 | 30 to 50 | – | – | – | – | – | O=C1OC(C(O)CO)C2=C1OC(CO)CO2 (stereo not drawn) [Synthesis Example 5, 2,3-O-(1-hydroxymethyl-1,2-ethanediyl) ascorbic acid] | ∘ (Total score of 10 panelists is 25 or more) | – | – | – | – | Coloration ([2]; after 4 weeks): ∘ (Total score of 10 panelists is 25 or more); Odor ([3]; after 2 weeks): ∘ (Total score of 10 panelists is 25 or more); Odor ([3]; after 4 weeks): ∘ (Total score of 10 panelists is 25 or more)
7 | ≥ 80 | ≥ 80 | ≥ 80 | ≥ 80 | 50 to 80 | 30 to 50 | 30 to 50 | < 30 | < 30 | < 30 | – | – | – | – | – | O=C1OC(C(O)CO)C2=C1OCCO2 (stereo not drawn) [Synthesis Example 1, 2,3-O-(1,2-ethanediyl) ascorbic acid] | ∘ (Total score of 10 panelists is 25 or more) | – | – | – | – | Coloration ([2]; after 4 weeks): Δ (Total score of 10 panelists is 16-24); Odor ([3]; after 2 weeks): ∘ (Total score of 10 panelists is 25 or more); Odor ([3]; after 4 weeks): ∘ (Total score of 10 panelists is 25 or more)
8 | ≥ 80 | ≥ 80 | ≥ 80 | ≥ 80 | 50 to 80 | 50 to 80 | 50 to 80 | 30 to 50 | 50 to 80 | 30 to 50 | – | – | – | – | – | O=C1OC(C(O)CO)C2=C1OCC(O)CO2 (stereo not drawn) [Synthesis Example 4, 2,3-O-(2-hydroxypropane-1,3-diyl) ascorbic acid] | ∘ (Total score of 10 panelists is 25 or more) | ++ (120%<) | – | – | – | Coloration ([2]; after 4 weeks): ∘ (Total score of 10 panelists is 25 or more); Odor ([3]; after 2 weeks): ∘ (Total score of 10 panelists is 25 or more); Odor ([3]; after 4 weeks): ∘ (Total score of 10 panelists is 25 or more)
9 | – | – | – | – | – | – | – | – | – | – | ⊚ (95% or more) | ⊚ (95% or more) | ⊚ (95% or more) | ⊚ (95% or more) | Δ (Total score of 10 panelists is 16-24) | CCCC(=O)OCC(O)C1OC(=O)C2=C1OCCCO2 (stereo not drawn) [Synthesis Example 20, 6-O-butanoyl-2,3-O-(1,3-propanediyl) ascorbic acid] | – | ++ (120%<) | ◯ (Total score of 10 panelists is 25 or more) | ◯ (Total score of 10 panelists is 25 or more) | ◯ (Total score of 10 panelists is 25 or more) | –
10 | ≥ 80 | ≥ 80 | ≥ 80 | ≥ 80 | ≥ 80 | ≥ 80 | ≥ 80 | 50 to 80 | 50 to 80 | 30 to 50 | – | – | – | – | – | O=C1OC(C(O)CO)C2=C1OCCCCO2 (stereo not drawn) [Synthesis Example 3, 2,3-O-(1,4-butanediyl) ascorbic acid] | ∘ (Total score of 10 panelists is 25 or more) | – | – | – | – | Coloration ([2]; after 4 weeks): ∘ (Total score of 10 panelists is 25 or more); Odor ([3]; after 2 weeks): ∘ (Total score of 10 panelists is 25 or more); Odor ([3]; after 4 weeks): ∘ (Total score of 10 panelists is 25 or more)
